Patent US20240239763A1, “CRYSTAL FORM OF THIOPHENE DERIVATIVE AND PREPARATION METHOD THEREFOR” (DONGBAO PURPLE STAR (HANGZHOU) BIOPHARMACEUTICAL CO., LTD., priority 2021, published 2024)
Blank lines part the entries; values can stand above or below the compound they belong to.

Assays:
[1] = Solid-state stability test of crystal form C; format: physicochemical; conditions: for Content / purity: crystal form C
Procedure: They were separately placed under stability conditions of high temperature (60° C.), high humidity (25° C./92.5% humidity), combined high temperature and high humidity (40° C./75% humidity), and light exposure. For the sample placed under high temperature and high humidity, the bottle was sealed with aluminum foil, with small holes punctured in the aluminum foil to ensure that the samples could fully contact the ambient air; the sample placed under strong light exposure was sealed with a quartz glass cap. […] The samples placed under combined high temperature and high humidity (40° C./75% humidity) were taken for testing in the 1st, 2nd, and 3rd months (appearance, related substances, and content). The samples placed under light exposure conditions were taken for testing when the total illuminance reached 1.2×10^6 Lux•hr.

[2] = Hepatic metabolic stability (HMS) in human liver cells; format: in vitro ADME; conditions: hepatocytes (liver cells) in suspension, read-out: Hepatic intrinsic clearance rates
Procedure: (§1) To test the metabolic stability of the test compound in human and rat liver cells.
(§2) 2.1 Test Compound (10 mM), controls: 7-Ethoxycoumarin (30 mM), 7-Hydroxycoumarin (control, 30 mM)
(§3) 1) A 30 mM solution was prepared by dissolving a precise amount of the positive control compound in dimethyl sulfoxide (DMSO).
(§4) 2) In a 96-well plate, the 10 mM test compound and 30 mM positive control compound were diluted to 1 mM and 3 mM, respectively, using DMSO.
(§5) 3) Acetonitrile was used to further dilute the 1 mM test compound and 3 mM positive control compound to quantification solutions with final concentrations of 100 μM and 300 μM, respectively.
(§6) 4) The stored cells were thawed, separated, and suspended in culture mediums. These cells were then diluted to a concentration of 0.5×10^6 cells/mL using pre-warmed culture mediums.
(§7) 5) In the 96-well plate, 198 μL of the pre-warmed cell suspension was added. […]
(§8) Through the following formula, the residual rates for the test compound and the control compound were calculated.
(§9) The elimination rate constant k for the test compound and control compound in hepatocytes was calculated by plotting the logarithm of the residual rate against time. The half-life (T1/2) and intrinsic clearance rate (CLint) were determined based on the elimination rate constant k. […]

[3] = Hepatic metabolic stability (HMS) in rat liver cells; format: in vitro ADME; conditions: hepatocytes (liver cells) in suspension, read-out: Hepatic intrinsic clearance rates
Procedure: as §1, §2, §3, §4, §5, §6, §7, §8, §9

P-gp (human MDR1) = experiment: MDR1 membrane permeability test (bidirectional); format: in vitro ADME, canine; conditions: dog, MDR1-MDCK II
Procedure: MDR1-MDCK II cells are Madin-Darby canine kidney cells transfected with the human MDR1 gene, enabling stable high expression of P-gp. The purpose of the present study is to test the bidirectional permeability of the compound across the MDR1-MDCK II cell model and evaluate its potential for efflux transport.
MDR1-MDCK II cells (sourced from Piet Borst at the Netherlands Cancer Institute) were seeded on polyethylene terephthalate (PET) membranes in a 96-well insert system at a density of 2.5×10^5 cells/mL. The cells were cultured until they formed a confluent monolayer over 4-7 days.
Test compounds were diluted in transport buffer (HBSS containing 10 mM Hepes with DMSO, pH 7.4) to a concentration of 2 μM (DMSO<1%) and were applied to either the apical or basolateral side of the cell monolayer. […] Additionally, efflux ratios for each compound were measured, and both test and reference compounds were quantified, based on the peak area ratio of the analyte to IS by LC/MS/MS analysis. After the transport assay, the integrity of the cell monolayer was determined using a Lucifer Yellow exclusion assay. […] The relative fluorescence units (RFU) of […] were measured at 425/528 nm (excitation/emission) using an Envision microplate reader.
The apparent permeability coefficient (Papp, cm/s), efflux ratio, and recovery rate were calculated using the following formulas: […]

CYP2C19 = CYP2C19 (Homo sapiens (Human), UniProt P33261); experiment: Cytochrome P450 isoenzyme inhibition, human liver microsomes; format: in vitro ADME; conditions: read-out: Cytochrome P450 isoenzymes IC50, CYP2C19
Procedure: (§10) To determine the inhibitory activity of the test compound against different subtypes of human cytochrome P450 isoenzymes. Test compounds, standard inhibitors (at 100× final concentration), and mixed substrate working solutions were prepared; the microsomes (purchased from Corning Inc.) stored at −80° C. were taken out and thawed. To the corresponding wells were added 20 μL of the test compound and standard inhibitor solutions. Meanwhile, 20 μL of the respective solvent was added to the No Inhibitor Control (NIC) and blank control wells. Next, 20 μL of mixed substrate solution was added to the corresponding wells, except the blank wells where 20 μL of phosphate buffer (PB) was added. A human liver microsome solution was prepared (immediately returned to the fridge after the date of use was marked). Then, 158 μL of this solution was added to all the wells. The sample plate was placed in a 37° C. water bath for pre-incubation. A co-enzyme factor (NADPH) solution was then promptly prepared. After 10 minutes, 20 μL of NADPH solution was added to all wells. The sample plate was shaken to mix and placed back into a 37° C. water bath for an additional 10 minutes of incubation. At the respective time points, the reaction was terminated by adding 400 μL of cold acetonitrile solution (internal standard at 200 ng/ml of tolbutamide and labetalol). The sample plate was mixed thoroughly and was then centrifuged at 4000 rpm for 20 minutes to precipitate proteins. 200 μL of the supernatant was taken and mixed with 100 μL of water, after which it was sent for LC/MS/MS analysis.

CYP2C9 = CYP2C9 (Homo sapiens (Human), UniProt P11712); experiment: as above; format: in vitro ADME; conditions: read-out: Cytochrome P450 isoenzymes IC50, CYP2C9
Procedure: as §10

CYP2D6 = CYP2D6 (Homo sapiens (Human), UniProt P10635); experiment: as above; format: in vitro ADME; conditions: read-out: Cytochrome P450 isoenzymes IC50, CYP2D6
Procedure: as §10

CYP3A4-M = CYP3A4-M (Homo sapiens (Human), UniProt P08684); experiment: as above; format: in vitro ADME; conditions: read-out: Cytochrome P450 isoenzymes IC50, CYP3A4-M
Procedure: as §10

[4] = Pharmacokinetics in SD rats in vivo; conditions: male, Sprague-Dawley, rat, plasma
Procedure: To test the pharmacokinetics of the compound in SD rats in vivo
Sprague Dawley rats (male, 180-350 g, 6 to 10 weeks of age, Beijing Vital River).
The solution was then filtered through a micropore membrane for later use. […] Six male SD rats were divided into two groups. […] In the second group, animals received a single oral gavage dose of the test compound at 10 mg/kg. […] Whole blood was centrifuged at 3200 g for 10 minutes at 4° C. to obtain plasma. The concentrations of the compound and uric acid (in the oral gavage group only) in the plasma were measured using the LC/MS/MS method. Pharmacokinetic parameters such as peak concentration, time to reach peak concentration, clearance rate, half-life, area under the curve, and bioavailability were calculated using Phoenix WinNonlin software.

[5] = Hygroscopicity study by dynamic vapor sorption (DVS); format: physicochemical; conditions: 25° C. and 80% RH
Procedure: Instrument model: Intrinsic dynamic vapor sorption analyzer Test conditions: A sample (10 to 30 mg) is taken and placed in a DVS sample tray for testing.
Detailed parameters for DVS are as follows:
Equilibrium: dm/dt=0.002%/min (minimum: 10 minutes, maximum: 180 minutes)
RH (%) test increment range: 0% to 95% to 0%
DVS Intrinsic dynamic vapor sorption analyzer
in a DVS sample tray for testing.

[6] = 40° C., relative humidity of 75%, open-top, 1M
[7] = 40° C., relative humidity of 75%, open-top, 2M
[8] = 40° C., relative humidity of 75%, open-top, 3M
[9] = High humidity (25° C./relative humidity of 92.5%, open-top), 5 days
[10] = High humidity (25° C./relative humidity of 92.5%, open-top), 10 days
[11] = High humidity (25° C./relative humidity of 92.5%, open-top), 30 days
[12] = High temperature (60° C., open-top), 5 days
[13] = High temperature (60° C., open-top), 10 days
[14] = High temperature (60° C., open-top), 30 days
[15] = Light exposure (total illuminance: 1.2 × 10^6 Lux · hr/near ultraviolet: 200 w · hr/m^2), 5 days
[16] = Light exposure (total illuminance: 1.2 × 10^6 Lux · hr/near ultraviolet: 200 w · hr/m^2), 10 days
[17] = 2.89 mg/kg, 2.89 mpk/intravenous injection

Chain of CYP2C9 (P11712 whole entry): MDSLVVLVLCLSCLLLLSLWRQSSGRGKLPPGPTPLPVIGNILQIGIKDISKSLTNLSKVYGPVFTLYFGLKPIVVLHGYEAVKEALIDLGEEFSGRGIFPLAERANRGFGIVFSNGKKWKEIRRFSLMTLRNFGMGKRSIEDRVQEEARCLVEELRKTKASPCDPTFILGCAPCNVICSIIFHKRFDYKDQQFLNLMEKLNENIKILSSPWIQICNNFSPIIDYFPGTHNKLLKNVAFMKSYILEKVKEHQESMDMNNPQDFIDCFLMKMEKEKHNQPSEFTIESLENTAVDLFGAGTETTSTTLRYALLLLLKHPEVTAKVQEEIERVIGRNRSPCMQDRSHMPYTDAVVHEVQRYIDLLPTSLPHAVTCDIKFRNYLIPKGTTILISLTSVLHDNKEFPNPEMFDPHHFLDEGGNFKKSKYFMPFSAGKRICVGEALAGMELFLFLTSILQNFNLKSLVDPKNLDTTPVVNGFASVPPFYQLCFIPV
Chain of CYP3A4-M (P08684 whole entry): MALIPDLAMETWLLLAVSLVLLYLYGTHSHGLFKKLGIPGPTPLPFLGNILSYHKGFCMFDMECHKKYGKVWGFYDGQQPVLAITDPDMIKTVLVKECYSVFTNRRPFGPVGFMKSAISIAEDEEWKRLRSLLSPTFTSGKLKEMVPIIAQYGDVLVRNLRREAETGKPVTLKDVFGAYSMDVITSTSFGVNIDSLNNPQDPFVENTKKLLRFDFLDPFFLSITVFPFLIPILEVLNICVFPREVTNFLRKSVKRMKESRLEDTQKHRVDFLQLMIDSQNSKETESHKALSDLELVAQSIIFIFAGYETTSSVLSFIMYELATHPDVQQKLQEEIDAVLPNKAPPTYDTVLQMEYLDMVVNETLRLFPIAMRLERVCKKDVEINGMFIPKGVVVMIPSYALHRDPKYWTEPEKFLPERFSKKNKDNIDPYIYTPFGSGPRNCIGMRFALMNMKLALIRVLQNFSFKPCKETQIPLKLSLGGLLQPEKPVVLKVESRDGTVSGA
Chain of CYP2C19 (P33261 whole entry): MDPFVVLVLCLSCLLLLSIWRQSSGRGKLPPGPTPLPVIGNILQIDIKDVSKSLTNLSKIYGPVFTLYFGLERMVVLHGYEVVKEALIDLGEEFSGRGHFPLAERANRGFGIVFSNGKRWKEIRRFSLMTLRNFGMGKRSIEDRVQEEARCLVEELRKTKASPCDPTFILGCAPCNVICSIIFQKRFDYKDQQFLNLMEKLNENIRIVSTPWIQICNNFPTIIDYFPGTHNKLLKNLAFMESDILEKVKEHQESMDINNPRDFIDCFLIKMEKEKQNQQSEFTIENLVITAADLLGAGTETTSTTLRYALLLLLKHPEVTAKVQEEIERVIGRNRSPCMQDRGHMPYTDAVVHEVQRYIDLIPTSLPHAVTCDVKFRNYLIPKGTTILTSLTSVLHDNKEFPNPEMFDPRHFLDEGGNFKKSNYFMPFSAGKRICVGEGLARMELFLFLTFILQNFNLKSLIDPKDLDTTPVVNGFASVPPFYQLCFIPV
Chain of CYP2D6 (P10635 whole entry): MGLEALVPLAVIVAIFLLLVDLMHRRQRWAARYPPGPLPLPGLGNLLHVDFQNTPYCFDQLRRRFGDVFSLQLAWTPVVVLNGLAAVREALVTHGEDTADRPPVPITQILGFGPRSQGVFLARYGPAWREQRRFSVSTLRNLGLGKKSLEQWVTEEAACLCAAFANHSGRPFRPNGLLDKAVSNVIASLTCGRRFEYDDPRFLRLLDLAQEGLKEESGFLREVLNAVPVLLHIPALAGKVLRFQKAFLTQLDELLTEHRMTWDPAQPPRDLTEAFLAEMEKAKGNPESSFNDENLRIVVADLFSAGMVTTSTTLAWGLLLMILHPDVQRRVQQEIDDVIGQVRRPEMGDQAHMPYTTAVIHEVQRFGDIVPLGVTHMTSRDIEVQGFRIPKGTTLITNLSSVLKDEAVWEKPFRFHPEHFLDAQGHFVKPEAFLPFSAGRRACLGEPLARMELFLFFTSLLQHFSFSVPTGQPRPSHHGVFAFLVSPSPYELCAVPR

Content ([1]; 0 days (initial)): 98.1%
purity ([1]; 0 days (initial)): 98.84%
Content [1, 6]: 97.8%
purity [1, 6]: 98.83%
Content [1, 7]: 97.8%
purity [1, 7]: 99.02%
Content [1, 8]: 97.8%
purity [1, 8]: 98.86%
Content [1, 9]: 97.9%
purity [1, 9]: 98.90%
Content [1, 10]: 97.9%
purity [1, 10]: 98.90%
Content [1, 11]: 97.9%
purity [1, 11]: 98.80%
Content [1, 12]: 98.5%
purity [1, 12]: 98.94%
Content [1, 13]: 98.3%
purity [1, 13]: 98.95%
Content [1, 14]: 98.1%
purity [1, 14]: 98.87%
Content [1, 15]: 97.6%
purity [1, 15]: 98.89%
Content [1, 16]: 98.0%
purity [1, 16]: 98.91%
CLint scaled at 1 µM [2]: 31.8 mL/min/kg
CLint scaled at 1 µM [3]: 188 mL/min/kg
Papp A→B at […], 2 µM (P-gp (human MDR1); pH 7.4, A-to-B): 26.4 ×10⁻⁶ cm/s
Papp B→A at […], 2 µM (P-gp (human MDR1); pH 7.4, B-to-A): 6.63 ×10⁻⁶ cm/s
IC50 (CYP2C19): > 50 µM
IC50 (CYP2C9): 18.1 µM
IC50 (CYP2D6): > 50 µM
IC50 (CYP3A4-M): > 50 µM
AUC(0-inf) [4, 17]: 41.8 µM·h
C0 [4, 17]: 96.6 µM
clearance [4, 17]: 3.59 mL/min/kg
Vd ([4]; 2.89 mg/kg, 2.89 mpk/intravenous injection, read-out: Vdss): 0.32 L/kg
AUC(0-inf) ([4]; 8.58 mg/kg, 8.58 mpk/oral): 86.6 µM·h
Cmax ([4]; 8.58 mg/kg, 8.58 mpk/oral): 27.5 µM
Tmax ([4]; 8.58 mg/kg, 8.58 mpk/oral): 0.5 h
bioavailability ([4]; 8.58 mg/kg, 8.58 mpk/oral): 62.1%
half-life ([4]; 8.58 mg/kg, 8.58 mpk/oral): 2.47 h
SMILES: N#Cc1sc(-c2ccc(C(=O)O)c(O)c2)c2c1CCC(F)(F)C2 [Compound of formula (I)]

hygroscopicity classification [5]: no hygroscopicity
ΔW (hygroscopic weight gain) [5]: 0.196%
solid-state stability (in words) ([1]; high temperature, high humidity, strong light exposure, and accelerated conditions): good stability
SMILES: N#Cc1sc(-c2ccc(C(=O)O)c(O)c2)c2c1CCC(F)(F)C2 [crystal form C]
